ChEMBL document CHEMBL5528076, “Development of Selective Pyrido[2,3-d]pyrimidin-7(8H)-one-Based Mammalian STE20-Like (MST3/4) Kinase Inhibitors” (J Med Chem, 2024)
Active and inactive are the calls of the source. The calls are words filed in the database; no cut-off is given here.

What was measured:
HCT-116 [1] = assay: Induction of cell cycle arrest in human HCT-116 cells assessed as accumulation of cells at G1 phase at 10 uM incubated for 72 hrs by FUCCI based analysis; assay type: functional
[2] = biological target: T1, Serine/threonine-protein kinase 26 (Homo sapiens, UniProt Q9P289); assay: Inhibition of MST4 (unknown origin)
Target sequence in this assay (Q9P289 whole entry): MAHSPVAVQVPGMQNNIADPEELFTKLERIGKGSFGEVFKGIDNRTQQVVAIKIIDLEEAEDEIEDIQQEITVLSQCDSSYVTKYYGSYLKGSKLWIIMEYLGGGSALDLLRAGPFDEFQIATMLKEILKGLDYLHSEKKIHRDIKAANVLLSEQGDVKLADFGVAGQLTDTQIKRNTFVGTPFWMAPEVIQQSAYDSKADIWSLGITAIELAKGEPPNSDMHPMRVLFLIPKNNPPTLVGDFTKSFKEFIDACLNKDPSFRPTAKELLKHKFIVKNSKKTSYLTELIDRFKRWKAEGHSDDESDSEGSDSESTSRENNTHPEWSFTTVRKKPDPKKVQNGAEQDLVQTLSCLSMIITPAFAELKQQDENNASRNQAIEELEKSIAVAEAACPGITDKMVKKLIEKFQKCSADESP

[3] = biological target: T2, Serine/threonine-protein kinase 24 (Homo sapiens, UniProt Q9Y6E0); assay: Inhibition of MST3 (unknown origin)
Target sequence in this assay (Q9Y6E0 whole entry): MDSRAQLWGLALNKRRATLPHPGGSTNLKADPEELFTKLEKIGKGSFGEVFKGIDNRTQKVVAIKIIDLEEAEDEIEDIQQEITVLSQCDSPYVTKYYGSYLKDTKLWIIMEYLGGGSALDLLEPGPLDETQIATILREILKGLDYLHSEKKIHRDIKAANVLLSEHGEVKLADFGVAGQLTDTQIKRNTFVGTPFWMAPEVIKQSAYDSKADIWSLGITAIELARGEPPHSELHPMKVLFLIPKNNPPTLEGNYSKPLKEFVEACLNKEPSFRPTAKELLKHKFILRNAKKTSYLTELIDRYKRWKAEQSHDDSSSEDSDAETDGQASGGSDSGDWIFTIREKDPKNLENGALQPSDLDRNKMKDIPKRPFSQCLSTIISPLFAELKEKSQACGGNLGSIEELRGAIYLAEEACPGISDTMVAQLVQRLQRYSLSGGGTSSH

[4] = biological target: T3, Serine/threonine-protein kinase 4 (Homo sapiens, UniProt Q13043); assay: Inhibition of MST1 (unknown origin) expressed in HEK293T cells using NanoGlo as substrate incubated for 20 hrs by NanoBRET assay; assay type: cell-based
T3 sequence (Q13043 whole entry): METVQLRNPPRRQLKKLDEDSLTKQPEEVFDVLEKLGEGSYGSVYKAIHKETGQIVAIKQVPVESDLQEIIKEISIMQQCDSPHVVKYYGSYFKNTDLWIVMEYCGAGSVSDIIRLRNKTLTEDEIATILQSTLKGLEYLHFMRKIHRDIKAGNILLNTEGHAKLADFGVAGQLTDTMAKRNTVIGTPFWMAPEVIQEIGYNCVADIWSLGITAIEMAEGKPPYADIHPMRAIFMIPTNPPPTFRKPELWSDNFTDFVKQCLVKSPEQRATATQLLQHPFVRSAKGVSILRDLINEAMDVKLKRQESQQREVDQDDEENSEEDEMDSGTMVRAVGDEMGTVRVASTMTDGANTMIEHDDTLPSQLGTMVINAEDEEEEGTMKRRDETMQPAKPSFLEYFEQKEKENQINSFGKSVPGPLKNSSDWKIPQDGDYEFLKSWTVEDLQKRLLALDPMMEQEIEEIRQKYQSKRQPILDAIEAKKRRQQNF

[5] = biological target: T1, Serine/threonine-protein kinase 26; assay: Binding affinity to recombinant MST4 (unknown origin) assessed as change in melting temperature by DSF analysis
Target sequence in this assay (Q9P289 2-416 limits assumed): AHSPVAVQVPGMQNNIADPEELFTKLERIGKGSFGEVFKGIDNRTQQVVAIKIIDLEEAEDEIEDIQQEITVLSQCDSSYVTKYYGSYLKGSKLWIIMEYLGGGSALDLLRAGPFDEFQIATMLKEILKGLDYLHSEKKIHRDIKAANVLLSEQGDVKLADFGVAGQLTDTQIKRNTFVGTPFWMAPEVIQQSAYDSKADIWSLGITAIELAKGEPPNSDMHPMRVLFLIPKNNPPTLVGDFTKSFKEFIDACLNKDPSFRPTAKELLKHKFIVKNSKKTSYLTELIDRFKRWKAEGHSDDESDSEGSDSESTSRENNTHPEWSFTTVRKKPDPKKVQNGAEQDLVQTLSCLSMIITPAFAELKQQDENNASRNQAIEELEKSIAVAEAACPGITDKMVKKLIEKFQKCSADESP

[6] = biological target: T2, Serine/threonine-protein kinase 24; assay: Inhibition of MST3 (unknown origin) expressed in lysed HEK293T cells using NanoGlo as substrate incubated for 20 hrs by NanoBRET assay; assay type: cell-based
Target sequence in this assay (Q9Y6E0 whole entry): as the sequence (Q9Y6E0 whole entry) above

[7] = biological target: T4, Serine/threonine-protein kinase 3 (Homo sapiens) (UniProt Q13188); assay: Binding affinity to recombinant MST2 (unknown origin) assessed as change in melting temperature by DSF analysis
T4 sequence (whole entry): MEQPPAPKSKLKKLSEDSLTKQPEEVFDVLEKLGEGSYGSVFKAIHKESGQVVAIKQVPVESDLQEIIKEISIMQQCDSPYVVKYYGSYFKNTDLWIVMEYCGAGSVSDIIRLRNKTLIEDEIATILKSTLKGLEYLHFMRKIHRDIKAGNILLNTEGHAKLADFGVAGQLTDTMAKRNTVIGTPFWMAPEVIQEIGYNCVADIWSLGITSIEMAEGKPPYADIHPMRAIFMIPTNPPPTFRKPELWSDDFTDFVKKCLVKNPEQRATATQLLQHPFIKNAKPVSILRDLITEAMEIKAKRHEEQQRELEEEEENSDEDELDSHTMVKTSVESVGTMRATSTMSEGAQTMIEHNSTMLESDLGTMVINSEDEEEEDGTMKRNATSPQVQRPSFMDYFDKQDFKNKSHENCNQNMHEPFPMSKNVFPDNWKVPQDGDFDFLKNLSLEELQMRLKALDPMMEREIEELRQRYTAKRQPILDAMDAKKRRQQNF

[8] = biological target: T2, Serine/threonine-protein kinase 24; assay: Binding affinity to recombinant MST3 (unknown origin) assessed as change in melting temperature by DSF analysis
Target sequence in this assay (Q9Y6E0 whole entry, looked up): as the sequence (Q9Y6E0 whole entry) above

[9] = biological target: T5, Serine/threonine-protein kinase 3 (Homo sapiens, UniProt Q13188); assay: Inhibition of MST2 (unknown origin) expressed in HEK293T cells using NanoGlo as substrate incubated for 20 hrs by NanoBRET assay; assay type: cell-based
T5 sequence (Q13188 whole entry): T4 sequence (whole entry)

[10] = biological target: T1, Serine/threonine-protein kinase 26; assay: Inhibition of MST4 (unknown origin) expressed in HEK293T cells using NanoGlo as substrate incubated for 20 hrs by NanoBRET assay; assay type: cell-based
Target sequence in this assay (Q9P289 whole entry): as the sequence (Q9P289 whole entry) above

[11] = biological target: Serine/threonine-protein kinase PAK 1 (Homo sapiens) (UniProt Q13153); assay: Binding affinity to recombinant PAK1 (unknown origin) assessed as change in melting temperature by DSF analysis
[12] = biological target: T6, Serine/threonine-protein kinase 4 (Homo sapiens) (UniProt Q13043); assay: Binding affinity to recombinant MST1 (unknown origin) assessed as change in melting temperature by DSF analysis
T6 sequence (whole entry): T3 sequence (Q13043 whole entry)

[13] = biological target: Serine/threonine-protein kinase SIK2 (Homo sapiens, UniProt Q9H0K1); assay: Inhibition of SIK2 (unknown origin) expressed in HEK293T cells using NanoGlo as substrate incubated for 20 hrs by NanoBRET assay; assay type: cell-based
[14] = biological target: T2, Serine/threonine-protein kinase 24; assay: Inhibition of MST3 (unknown origin) expressed in intact HEK293T cells using NanoGlo as substrate incubated for 20 hrs by NanoBRET assay; assay type: cell-based
Target sequence in this assay (Q9Y6E0 whole entry): as the sequence (Q9Y6E0 whole entry) above

HCT-116 [15] = assay: Induction of apoptosis in human HCT-116 cells assessed as effect on cell count at 10 uM incubated for 72 hrs by Hoechst33342 staining based analysis; assay type: functional
HCT-116 [16] = assay: Antiproliferative activity against human HCT-116 cells assessed as reduction in cell viability at 10 uM incubated for 6 to 72 hrs by Hoechst33342 staining based analysis; assay type: functional; details: time 6-72 hrs
HCT-116 [17] = assay: Induction of apoptosis in human HCT-116 cells assessed as increase in fluorescence intensity at 10 uM incubated for 24 hrs by Hoechst33342 staining based analysis; assay type: functional, cell-based
HCT-116 [18] = assay: Induction of apoptosis in human HCT-116 cells assessed as effect on cell count at 1 uM incubated for 72 hrs by Hoechst33342 staining based analysis; assay type: functional
HCT-116 [19] = assay: Antiproliferative activity against human HCT-116 cells assessed as reduction in cell viability at 10 uM incubated for 48 hrs by Hoechst33342 staining based analysis; assay type: functional
[20] = biological target: T2, Serine/threonine-protein kinase 24; assay: Inhibition of MST3 (unknown origin) expressed in HEK293T cells using NanoGlo as substrate incubated for 20 hrs by NanoBRET assay; assay type: cell-based
Target sequence in this assay (Q9Y6E0 whole entry): as above

Sequence of Serine/threonine-protein kinase SIK2 (Q9H0K1 whole entry): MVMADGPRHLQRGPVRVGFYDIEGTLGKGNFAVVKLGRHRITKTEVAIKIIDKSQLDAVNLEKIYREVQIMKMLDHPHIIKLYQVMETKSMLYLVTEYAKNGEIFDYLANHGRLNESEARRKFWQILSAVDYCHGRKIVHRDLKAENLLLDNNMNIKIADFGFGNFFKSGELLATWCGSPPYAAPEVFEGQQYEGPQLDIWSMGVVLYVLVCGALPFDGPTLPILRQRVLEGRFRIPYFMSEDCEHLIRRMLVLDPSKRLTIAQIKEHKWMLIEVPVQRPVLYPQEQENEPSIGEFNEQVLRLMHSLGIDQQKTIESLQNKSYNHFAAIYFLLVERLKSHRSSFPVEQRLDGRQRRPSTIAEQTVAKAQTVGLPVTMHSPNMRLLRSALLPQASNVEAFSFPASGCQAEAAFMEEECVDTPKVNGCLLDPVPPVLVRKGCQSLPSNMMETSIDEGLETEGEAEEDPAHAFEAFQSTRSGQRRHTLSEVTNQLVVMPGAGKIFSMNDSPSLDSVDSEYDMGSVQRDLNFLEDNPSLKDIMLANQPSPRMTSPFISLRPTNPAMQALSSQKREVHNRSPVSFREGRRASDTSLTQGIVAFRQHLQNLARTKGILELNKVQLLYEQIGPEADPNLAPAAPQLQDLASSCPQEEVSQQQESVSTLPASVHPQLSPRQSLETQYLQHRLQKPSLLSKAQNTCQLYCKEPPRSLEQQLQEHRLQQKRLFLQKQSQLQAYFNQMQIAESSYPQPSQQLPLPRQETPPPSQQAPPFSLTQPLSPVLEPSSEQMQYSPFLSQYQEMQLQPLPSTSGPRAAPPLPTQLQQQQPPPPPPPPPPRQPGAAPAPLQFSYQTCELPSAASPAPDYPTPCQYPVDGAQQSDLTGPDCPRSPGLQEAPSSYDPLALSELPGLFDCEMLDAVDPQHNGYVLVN
Sequence of Serine/threonine-protein kinase PAK 1 (Homo sapiens) (Q13153 whole entry): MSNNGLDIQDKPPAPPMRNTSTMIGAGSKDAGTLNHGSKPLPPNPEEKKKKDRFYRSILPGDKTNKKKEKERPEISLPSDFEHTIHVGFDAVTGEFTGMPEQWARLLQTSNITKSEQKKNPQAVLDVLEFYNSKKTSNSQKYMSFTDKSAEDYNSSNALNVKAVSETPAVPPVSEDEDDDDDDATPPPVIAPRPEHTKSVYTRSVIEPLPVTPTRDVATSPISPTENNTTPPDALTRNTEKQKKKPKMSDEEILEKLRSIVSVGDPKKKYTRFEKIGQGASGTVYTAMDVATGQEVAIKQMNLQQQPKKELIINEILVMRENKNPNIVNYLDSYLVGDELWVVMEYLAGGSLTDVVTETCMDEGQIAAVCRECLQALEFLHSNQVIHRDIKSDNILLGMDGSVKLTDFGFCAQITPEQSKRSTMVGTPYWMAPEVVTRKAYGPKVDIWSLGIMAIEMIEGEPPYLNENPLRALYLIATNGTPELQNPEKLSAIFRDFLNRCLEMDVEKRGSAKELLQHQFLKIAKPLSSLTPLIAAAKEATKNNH

Row | Compound | Activity (HCT-116 [1]) | IC50 [2] | IC50 [3] | EC50 [4] | ΔTm [5] | EC50 [6] | ΔTm [7] | ΔTm [8] | EC50 [9] | EC50 [10] | ΔTm [11] | ΔTm [12] | EC50 [13] | EC50 [14] | Activity (HCT-116 [15]) | Activity (HCT-116 [16]) | Activity (HCT-116 [17]) | Activity (HCT-116 [18]) | Activity (HCT-116 [19]) | EC50 [20]
1 | CNC(=O)c1nn(C)c2c1C(C)(C)Cc1cnc(Nc3ccc(N4CCN(C)CC4)cc3)nc1-2 | Active |  |  |  |  |  |  |  |  |  |  |  |  |  |  |  |  |  |  | 
2 | CCS(=O)(=O)Nc1ccc2c(c1)/C(=C(/Nc1ccc(CN3CCCCC3)cc1)c1ccccc1)C(=O)N2 [HESPERADIN] |  | 6 nM | 10 nM |  |  |  |  |  |  |  |  |  |  |  |  |  |  |  |  | 
3 | Cc1cccc(-c2ccc(-c3cc4cnc(Nc5cc(C(F)(F)F)ccc5C)nc4n(CCCCN)c3=O)c(Cl)c2)n1 |  |  |  | 5.7 µM | 9.5 °C | 367 nM | 10.2 °C | 13 °C | 5.5 µM | 2200 nM | 5.9 °C | 5.8 °C | 5500 nM |  |  |  |  |  |  | 
4 | COc1cc(N2CCOCC2)ccc1Nc1ncc2cc(-c3ccc(-c4cccc(C)n4)cc3Cl)c(=O)n(CCCCN)c2n1 |  |  |  | 2.1 µM | 9.2 °C | 115 nM | 7.5 °C | 11 °C | 3.1 µM | 1200 nM | 5 °C | 4.6 °C | 85 nM |  |  |  |  |  |  | 
5 | Cc1cccc(-c2ccc(-c3cc4cnc(NCCCN5CCOCC5)nc4n(CCCCN)c3=O)c(Cl)c2)n1 |  |  |  | 5.3 µM | 10.6 °C | 27 nM | 5.9 °C | 11.6 °C | 10.2 µM | 115 nM | 4.1 °C | 3.6 °C | 512 nM | 55 nM | Active | inactive | Active |  |  | 
6 | Cc1cccc(-c2ccc(-c3cc4cnc(Nc5ccc(C)c(O)c5)nc4n(CCCCN)c3=O)c(Cl)c2)n1 |  |  |  | 0.53 µM | 15.9 °C | 34 nM | 13.2 °C | 17.5 °C | 0.537 µM | 60 nM | 9.1 °C | 8.1 °C | 37 nM |  |  |  |  |  |  | 
7 | Cc1cccc(-c2ccc(-c3cc4cnc(NCCCN5CCCC5=O)nc4n(CCCCN)c3=O)c(Cl)c2)n1 | Active |  |  | 15.1 µM | 7.5 °C | 56 nM | 2.2 °C | 10.6 °C | 16.9 µM | 1100 nM | 3.6 °C | 1.1 °C | 1300 nM | 178 nM |  | inactive |  | Active | 30% | 
8 | Cc1cccc(-c2ccc(-c3cc4cnc(Nc5ccc(CCCO)cc5)nc4n(CCCCN)c3=O)c(Cl)c2)n1 |  |  |  | 0.251 µM | 15.3 °C | 20 nM | 13.7 °C | 16.7 °C | 0.249 µM | 48 nM | 9.1 °C | 8.7 °C | 49 nM | 20 nM |  |  | Active |  |  | 
9 | Cc1cccc(-c2ccc(-c3cc4cnc(NCCCN5CCNCC5)nc4n(CCCCN)c3=O)c(Cl)c2)n1 |  |  |  | > 50 µM | 8.9 °C | 33 nM | 15.8 °C | 13 °C | > 50 µM | 2800 nM | 5 °C | 3.1 °C | 5900 nM |  |  |  |  |  |  | 
10 | Cc1cccc(-c2ccc(-c3cc4cnc(NCCCc5ccc(N)cc5)nc4n(CCCCN)c3=O)c(Cl)c2)n1 |  |  |  | 3.4 µM | 9.7 °C | 57 nM | 7.2 °C | 12.2 °C | 3.6 µM | 681 nM | 6.8 °C | 4.9 °C | 516 nM |  |  |  |  |  |  | 
11 | COc1ccc(O)c(Nc2ncc3cc(-c4ccc(-c5cccc(C)n5)cc4Cl)c(=O)n(CCCCN)c3n2)c1 |  |  |  | 3.3 µM | 8.3 °C | 163 nM | 5.4 °C | 11 °C | 3.1 µM | 793 nM | 4.5 °C | 3.8 °C | 543 nM |  |  |  |  |  |  | 
12 | Cc1cccc(-c2ccc(-c3cc4cnc(Nc5ccc(F)c(CO)c5)nc4n(CCCCN)c3=O)c(Cl)c2)n1 |  |  |  | 0.314 µM | 14.8 °C | 10 nM | 16 °C | 16.9 °C | 0.184 µM | 44 nM | 9.3 °C | 8.6 °C | 51 nM |  |  |  |  |  |  | 
13 | CNc1ncc2cc(-c3ccc(-c4cccc(C)n4)cc3Cl)c(=O)n(CCCCN)c2n1 |  |  |  | 4.1 µM | 11.4 °C | 42 nM | 7.9 °C | 11.7 °C | 2.6 µM | 457 nM | 6.5 °C | 5.6 °C | 99 nM | 221 nM | Active | inactive | Active |  |  | 42 nM
14 | CC(=O)NC1CCN(c2ncnc3[nH]cc(-c4cccc(Cl)c4)c23)CC1 |  |  |  |  |  |  |  |  |  |  |  |  |  |  |  | inactive |  |  |  | 
15 | CCOc1cc2ncc(C#N)c(Nc3ccc(OCc4ccccn4)c(Cl)c3)c2cc1NC(=O)/C=C/CN(C)C [NERATINIB] |  | 7 nM | 7 nM |  |  |  |  |  |  |  |  |  |  |  |  |  |  |  |  | 
